Assay results published in ChEMBL document CHEMBL1201862, “PubChem BioAssay data set” (2004).
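Method: 48-hour compound exposure of cells in 96-well plates, five concentrations, linear interpolation of endpoints. GI50: concentration for 50% inhibition of growth.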 Calls of active or inactive are those of the source. Cut-off read from the data, not from the text of the source: active = GI50 up to about 1.1 µM and inactive = higher.

Key:
Test in all cases: inhibition of tumour cell growth, NCI panel, 48 h
[1] = test system: OVCAR-3
[2] = test system: KM12
[3] = test system: A549
[4] = test system: UACC-62
[5] = test system: MDA-MB-231
[6] = test system: SNB-75
[7] = test system: CCRF-CEM
[8] = test system: HCT-15
[9] = test system: SNB-19
[10] = test system: ACHN
[11] = test system: NCI-H522
[12] = test system: Malme-3M
[13] = test system: Hs-578T
[14] = test system: HOP-92
[15] = test system: OVCAR-5
[16] = test system: T47D
[17] = test system: TK-10
[18] = test system: MOLT-4
[19] = test system: SR
[20] = test system: 786-0

SMILES	GI50 [1]	GI50 [2]	GI50 [3]	GI50 [4]	GI50 [5]	GI50 [6]	GI50 [7]	GI50 [8] [µM]	GI50 [9]	GI50 [10]	GI50 [11]	GI50 [12]	GI50 [13]	GI50 [14]	GI50 [15]	GI50 [16]	GI50 [17]	GI50 [18]	GI50 [19]	GI50 [20]
O=C1OC(=O)C2C1C(c1ccccc1[N+](=O)[O-])C=C(c1ccco1)N2c1ccncc1 (stereo not given)	11.9 µM (inactive)	1.98 µM (inactive)	13.6 µM (inactive)	16.9 µM (inactive)	13 µM (inactive)	14 µM (inactive)	2.29 µM (inactive)	2.92	8.39 µM (inactive)	1.85 µM (inactive)	2.28 µM (inactive)	25.1 µM (inactive)	> 25.9 µM (inactive)	3.68 µM (inactive)	18.2 µM (inactive)	4.97 µM (inactive)	3.82 µM (inactive)	1.88 µM (inactive)	0.679 µM (active)	1.91 µM (inactive)
COc1cc2c(cc1OC)-c1cc3ccc(OC)c(OC)c3c[n+]1CC2 [PALMATINE CHLORIDE]	39.9 µM (inactive)	> 100 µM (inactive)	> 100 µM (inactive)	> 100 µM (inactive)	> 100 µM (inactive)	> 100 µM (inactive)	> 100 µM (inactive)	> 100	15.5 µM (inactive)	> 100 µM (inactive)	> 100 µM (inactive)	> 100 µM (inactive)	> 100 µM (inactive)	> 100 µM (inactive)	> 100 µM (inactive)	83.4 µM (inactive)	> 100 µM (inactive)	> 100 µM (inactive)	> 100 µM (inactive)	> 100 µM (inactive)
